Source: patent US8235974B2, “Method for hair removal” (Ecole Polytechnique Federale de Lausanne (EPFL), priority 2001, dated 2012)

What was measured:
[1] = system: skin area; details: applied 15 to 25 hours, pulsed red light, cited from earlier work
[2] = system: PpIX fluorescence in human forearm or leg skin areas (hair follicle vs epidermis); assay: Macroscopic PpIX fluorescence imaging of skin after topical photosensitizer precursor; ratio r hair follicle/hairless epidermis; assay type: in vivo
Description: The photosensitizer precursors were formulated within standard excipients of the European Pharmacopoeia, namely unguentum leniens (UL) and unguentum hydrophilicum anionicum (UH); for some essays, the photosensitizer precursors were suspended either in pure glycerol (GLY) or in pure diethylene glycol monoethyl ether (DGME).
The formulations were administered topically on the forearm or the leg using the Tegaderm™ transparent dressing. This dressing enables the transport of water and oxygen according to the specifications of the manufacturer. This dressing was removed and the remaining formulation cleaned with pure ethanol just before the measurements performed at one single point in time. For the pharmacokinetic measurements, this dressing was removed after four hours. This removal of the Tegaderm™ during the remaining time course of the measurements induced negligible minimal alterations of the measurements due to the excellent transparency of this dressing at the wavelengths of interest.
A fluorescence imaging system illustrated by FIG. 9 was developed to assess the extent and level of PpIX production in “macroscopic” samples (parts of the human body such as: forearm, leg, back, etc.). As the goal is to assess the relative level of PpIX in the hair follicle of these samples, red light at 635 nm was chosen as PpIX fluorescence excitation wavelength. It is indeed well known that red light penetrates deeper in the cutaneous tissues than green and violet light, the later two wavelengths corresponding to larger PpIX absorption peaks (see the PpIX fluorescence excitation and emission spectra presented on the right side in FIG. 9).
As presented in the schematic diagram presented in FIG. 9, this fluorescence imaging system involves a modified 300 W D-light source 1 (Xe arc lamp from Storz, Tuttlingen, Germany) equipped with a red bandpass filter (635 nm, 20 nm FWHM; Chroma, USA). This fluorescence excitation light is coupled in a Storz 4 mm diameter light guide 2. The output of this light guide is imaged on the tissue sample 3 with a projection objective 4 (Nikon, Japan; AF Nikkor; 1:1.4 D/50 mm) to generate a homogenous spot of 2.5 cm in diameter with an irradiance of 2 mW/cm^2 at 635 nm. The distance between this projection objective 4 and the sample 3 is 25 cm. Therefore, the light beam illuminating the sample can be considered as parallel. The fluorescence is collected by another objective 5 (Fujinon, Japan; TV zoom lens; 1:1.2/12.5-75 mm; Type H6X12.5R-MD3) through a longpass filter 6 (Schott, Germany; RG665) and the image detected by a scientific CCD camera (752×582 pixels CF 8/1 Kappa, Gleichen, Germany) equipped 7 with an image intensifier (Proxifier BV 256-2FcZ-CH, Proxitronic, Bensheim, Germany). The images are captured by the 8-bits camera frame grabber and saved on the computer 8 with the “Kappa Imagebase-control” software. Image treatment is carried out using the IPLab imaging software. The spatial resolution of the complete setup has been measured with an USAF resolution target and the value we obtained in the sample plan is 3 lp/mm, the size of the image detected by the camera being 3×4 cm^2. A reference sample has been designed to enable a comparison of the relative fluorescence brightness between samples investigated at different times. This reference consists of a ruby disk (diameter: 12 mm; thickness: 1.02 mm; Type 8Sp3, Hans Stettler SA, Lyss, Switzerland) covered with a neutral density filter (T=2.27%) so that the signal obtained with this reference sample corresponds to the typical tissue fluorescence detected in our conditions.
The images were analyzed using the NIH image software. The method consisted in identifying the location of an area corresponding to: 1) one typical hair follicle and 2) epidermis presenting no skin appendages. The number of pixels involved in such an area was typically 100. […]

[3] = system: sheep; details: light irradiation about 8 to 10 hours later, 600 to 700 nm; cited from earlier work
[4] = system: skin area (hairs, follicles, epidermis); assay: Irradiation of treated skin areas at 635 nm: hair removal and skin reaction; assay type: in vivo, human; details: pure, applied 195 minutes; irradiated 200 minutes later, 30 J/cm^2 at 65 mW/cm^2 (FIG. 7A)
Description: The irradiation step of the skin areas treated by means of the various photosensitizer precursor compositions described above was conducted as follows: The irradiation of the skin was performed at 635 nm with an argon ion (Spectra-Physics, model 2020) pumped dye laser (Spectra-Physics, model 375B). The light was coupled in a frontal FD1 light distributor from Medlight SA (Ecublens, Switzerland). This distributor generated a uniform 2 cm in diameter spot. The typical irradiances and light doses were 60 to 130 mW/cm^2 and 30 to 130 J/cm^2, respectively. The irradiance was checked before and after all treatments. The light power delivered by the light distributor was determined using a power meter from Spectra-Physics (Model 407A, Mountain view, Calif., USA).
Thereafter, the skin was cleaned as indicated above. 15 minutes later, the skin area was irradiated with a light dose of 127 J/cm^2 at an irradiance of 127 mW/cm^2.
A first area was submitted to light irradiation after a waiting time equal to 200 minutes with a light dose of 61 J/cm^2 at an irradiance of 42.4 mW/cm^2. […] A second area was submitted to light irradiation 30 minutes after the end of drug administration. The light dose was 130 J/cm^2 at an irradiance of 56.6 mW/cm^2.
Thereafter, the skin was cleaned and irradiated 200 minutes later with a light dose of 30 J/cm^2 at an irradiance of 65 mW/cm^2.

[5] = three hours administration, 20% in DGME
[6] = three hours administration, 20% in glycerol

Row | SMILES | hair removal ([1]; treatment repeated about 4 to 8 times) | duration of sunburn like side effects after an irradiation [1] [days] | ratio r (hair follicle/epidermis fluorescence) [2, 5] | ratio r (hair follicle/epidermis fluorescence) [2, 6] | ratio r (fluorescence brightness hair follicle area / hairless epidermis area) ([2]; three hours after administration, in unguentum hydrophilicum) | side effects in treated skin areas of test animals [3] | wool growth [3] | ratio r (hair follicle/epidermis fluorescence) ([2]; pure, lower leg, 3 hours, normal skin temperature of 31° C.) | ratio r (hair follicle/epidermis fluorescence) ([2]; pure, lower leg, three hours at 41° C. (electric blanket)) | skin reaction one day after irradiation [4] | kinetics of the hair follicle/epidermis fluorescence ratio ([2]; 20% in Unguentum Leniens, one volunteer, 0 to 1380 minutes (FIG. 10))
1 | Cl.NCC(=O)CCC(=O)O [ALA, 5-amino-levulinic acid hydrochloride] | effective | 2 to 20 | 2.21 | 1.62 | 1.46 | edema, discoloration and crusting | significantly reduced | – | – | – | –
2 | CCOCCOCCOC(=O)CCC(=O)CN [ALA-DGME, diethylene glycol monoethyl ether 5-amino-levulinate] | – | – | 3.24 | 2.51 | – | – | – | 3.47 | 4.72 | a clear reaction selectivity between the skin areas around follicles and the epidermis in bulk | –
3 | COC(=O)CCC(=O)CN [m-ALA, methyl ester of ALA] | – | – | – | – | – | – | – | – | – | – | decreases rapidly during the first hours and tends to unity for longer times
